{"source": "patent US20140066461A1", "about": "“METHODS FOR DIAGNOSING AND TREATING SCHIZOPHRENIA” (priority 2012, published 2014)", "origin": "cited, not measured here", "key": {"[1]": {"system": "rats"}, "[2]": {"system": "rats", "remark": "listed apart in the source"}, "[3]": {"system": "patients with previously treated mantle cell lymphoma"}, "[4]": {"target": "BTK (Homo sapiens, UniProt Q06187)", "sequence (Q06187 whole entry)": "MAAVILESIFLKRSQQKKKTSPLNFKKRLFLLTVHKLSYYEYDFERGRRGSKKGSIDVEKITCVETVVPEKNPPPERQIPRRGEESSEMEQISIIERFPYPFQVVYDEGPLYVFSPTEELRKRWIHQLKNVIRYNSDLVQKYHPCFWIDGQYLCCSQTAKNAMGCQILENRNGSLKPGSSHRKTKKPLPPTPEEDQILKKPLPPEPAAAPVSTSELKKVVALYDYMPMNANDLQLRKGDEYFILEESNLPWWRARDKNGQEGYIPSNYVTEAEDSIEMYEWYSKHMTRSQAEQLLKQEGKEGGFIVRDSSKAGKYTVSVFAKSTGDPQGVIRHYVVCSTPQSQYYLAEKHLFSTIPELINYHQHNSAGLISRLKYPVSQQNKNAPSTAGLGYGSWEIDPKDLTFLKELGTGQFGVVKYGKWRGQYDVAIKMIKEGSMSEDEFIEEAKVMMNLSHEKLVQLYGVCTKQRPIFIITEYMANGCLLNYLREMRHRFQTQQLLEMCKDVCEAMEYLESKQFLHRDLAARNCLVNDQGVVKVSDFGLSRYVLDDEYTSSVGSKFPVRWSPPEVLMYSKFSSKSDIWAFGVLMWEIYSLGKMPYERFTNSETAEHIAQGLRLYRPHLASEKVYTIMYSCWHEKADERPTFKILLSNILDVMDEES"}, "[5]": {"system": "protein tyrosine phosphatases"}}}
{"smiles": "O=C(CCCN1CCC(O)(c2ccc(Cl)cc2)CC1)c1ccc(F)cc1", "note": "[haloperidol]", "values": [{"measurement": "effects of amphetamine on attention", "setting": "[1]", "value": "reverse the effects of amphetamine on attention in rats"}, {"measurement": "picrotoxin effect on prepulse inhibition of startle", "setting": "[2]", "value": "reduces this effect"}]}
{"smiles": "C=CC(=O)N1CCC[C@@H](n2nc(-c3ccc(Oc4ccccc4)cc3)c3c(N)ncnc32)C1", "note": "[PCI-32765]", "values": [{"measurement": "complete responses", "setting": "[3]; 560 mg/day", "value": "About 15%"}, {"measurement": "objective responses (partial plus complete)", "setting": "[3]; 560 mg/day, 51 patients evaluable for efficacy, early in the trial", "value": 69, "unit": "%"}, {"measurement": "effect on lymph nodes", "setting": "[3]; MCL study, accompanied by large increases in lymphocyte counts in circulation", "value": "rapid shrinkage of lymph nodes swollen with malignant cells"}, {"measurement": "patients exhibiting complete or partial responses", "setting": "[3]; preliminary data, ongoing phase II trial", "value": "About two-thirds"}, {"measurement": "toxicity", "setting": "[3]; small trials, mantle cell lymphoma", "value": "low toxicity"}]}
{"smiles": "Nc1ncnc2c1c(-c1ccc(Oc3ccccc3)cc1)nn2C1CCCC1", "note": "[PCI-29732]", "values": [{"measurement": "mode of BTK inhibition", "setting": "[4]", "value": "reversible BTK inhibitor"}]}
{"smiles": "Cc1ccc(S(=O)(=O)/C=C/C#N)cc1", "note": "[BAY-11-7082]", "values": [{"measurement": "inhibition of protein tyrosine phosphatases", "setting": "[5]", "value": "act as inhibitors of protein tyrosine phosphatases"}]}
